Measured values as given in ChEMBL document CHEMBL4507266, “Data for DCP probe BAY-784” (2021).

Legend:
[1] = target: Sigma intracellular receptor 2 (Homo sapiens, UniProt Q5BJF2); assay: GPCRScan assay: inhibition of Sigma 2; set-up: radioligand conc. used [nm] 5.0, parental cells HEKT
[2] = system: Tyrosine-protein kinase ABL1 (Homo sapiens), P00519 [F317L]; conditions: Compound concentration 1000.0 nM
[3] = target: Tyrosine-protein kinase ABL2 (Homo sapiens) (UniProt P42684); conditions: Compound concentration 1000.0 nM
[4] = target: Activin receptor type-1B (Homo sapiens) (UniProt P36896); conditions: Compound concentration 1000.0 nM
[5] = system: ALK tyrosine kinase receptor (Homo sapiens), Q9UM73 [L1196M]; conditions: Compound concentration 1000.0 nM
[6] = target: 5'-AMP-activated protein kinase catalytic subunit alpha-1 (Homo sapiens) (UniProt Q13131); conditions: Compound concentration 1000.0 nM
[7] = target: Aurora kinase C (Homo sapiens) (UniProt Q9UQB9); conditions: Compound concentration 1000.0 nM
[8] = target: Tyrosine-protein kinase receptor UFO (Homo sapiens) (UniProt P30530); conditions: Compound concentration 1000.0 nM
[9] = target: Calcium/calmodulin-dependent protein kinase type 1G (Homo sapiens) (UniProt Q96NX5); conditions: Compound concentration 1000.0 nM
[10] = target: Calcium/calmodulin-dependent protein kinase type II subunit alpha (Homo sapiens) (UniProt Q9UQM7); conditions: Compound concentration 1000.0 nM
Sequence of Calcium/calmodulin-dependent protein kinase type II subunit alpha (Homo sapiens) (Q9UQM7 whole entry): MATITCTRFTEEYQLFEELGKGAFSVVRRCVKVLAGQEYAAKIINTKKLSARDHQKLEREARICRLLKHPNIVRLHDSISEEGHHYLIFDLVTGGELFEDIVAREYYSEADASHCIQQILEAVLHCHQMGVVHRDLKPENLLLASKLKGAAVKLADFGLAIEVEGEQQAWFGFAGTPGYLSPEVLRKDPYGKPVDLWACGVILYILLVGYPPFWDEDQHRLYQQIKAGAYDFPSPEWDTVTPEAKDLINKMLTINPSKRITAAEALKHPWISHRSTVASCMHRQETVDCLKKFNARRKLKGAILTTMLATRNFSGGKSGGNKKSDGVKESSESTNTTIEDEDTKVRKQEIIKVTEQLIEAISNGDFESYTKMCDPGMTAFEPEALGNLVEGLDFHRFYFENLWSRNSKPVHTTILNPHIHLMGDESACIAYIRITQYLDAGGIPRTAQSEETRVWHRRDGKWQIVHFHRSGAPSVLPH

[11] = target: Cyclin-dependent kinase 2 (Homo sapiens) (UniProt P24941); conditions: Compound concentration 1000.0 nM
[12] = target: Cyclin-dependent kinase 7 (Homo sapiens) (UniProt P50613); conditions: Compound concentration 1000.0 nM
[13] = target: Dual specificity protein kinase CLK4 (Homo sapiens) (UniProt Q9HAZ1); conditions: Compound concentration 1000.0 nM
[14] = target: Macrophage colony-stimulating factor 1 receptor (Homo sapiens) (UniProt P07333); conditions: Compound concentration 1000.0 nM
[15] = target: Casein kinase I isoform delta (Homo sapiens) (UniProt P48730); conditions: Compound concentration 1000.0 nM
[16] = target: Serine/threonine-protein kinase MRCK gamma (Homo sapiens) (UniProt Q6DT37); conditions: Compound concentration 1000.0 nM
Sequence of Serine/threonine-protein kinase MRCK gamma (Homo sapiens) (Q6DT37 whole entry): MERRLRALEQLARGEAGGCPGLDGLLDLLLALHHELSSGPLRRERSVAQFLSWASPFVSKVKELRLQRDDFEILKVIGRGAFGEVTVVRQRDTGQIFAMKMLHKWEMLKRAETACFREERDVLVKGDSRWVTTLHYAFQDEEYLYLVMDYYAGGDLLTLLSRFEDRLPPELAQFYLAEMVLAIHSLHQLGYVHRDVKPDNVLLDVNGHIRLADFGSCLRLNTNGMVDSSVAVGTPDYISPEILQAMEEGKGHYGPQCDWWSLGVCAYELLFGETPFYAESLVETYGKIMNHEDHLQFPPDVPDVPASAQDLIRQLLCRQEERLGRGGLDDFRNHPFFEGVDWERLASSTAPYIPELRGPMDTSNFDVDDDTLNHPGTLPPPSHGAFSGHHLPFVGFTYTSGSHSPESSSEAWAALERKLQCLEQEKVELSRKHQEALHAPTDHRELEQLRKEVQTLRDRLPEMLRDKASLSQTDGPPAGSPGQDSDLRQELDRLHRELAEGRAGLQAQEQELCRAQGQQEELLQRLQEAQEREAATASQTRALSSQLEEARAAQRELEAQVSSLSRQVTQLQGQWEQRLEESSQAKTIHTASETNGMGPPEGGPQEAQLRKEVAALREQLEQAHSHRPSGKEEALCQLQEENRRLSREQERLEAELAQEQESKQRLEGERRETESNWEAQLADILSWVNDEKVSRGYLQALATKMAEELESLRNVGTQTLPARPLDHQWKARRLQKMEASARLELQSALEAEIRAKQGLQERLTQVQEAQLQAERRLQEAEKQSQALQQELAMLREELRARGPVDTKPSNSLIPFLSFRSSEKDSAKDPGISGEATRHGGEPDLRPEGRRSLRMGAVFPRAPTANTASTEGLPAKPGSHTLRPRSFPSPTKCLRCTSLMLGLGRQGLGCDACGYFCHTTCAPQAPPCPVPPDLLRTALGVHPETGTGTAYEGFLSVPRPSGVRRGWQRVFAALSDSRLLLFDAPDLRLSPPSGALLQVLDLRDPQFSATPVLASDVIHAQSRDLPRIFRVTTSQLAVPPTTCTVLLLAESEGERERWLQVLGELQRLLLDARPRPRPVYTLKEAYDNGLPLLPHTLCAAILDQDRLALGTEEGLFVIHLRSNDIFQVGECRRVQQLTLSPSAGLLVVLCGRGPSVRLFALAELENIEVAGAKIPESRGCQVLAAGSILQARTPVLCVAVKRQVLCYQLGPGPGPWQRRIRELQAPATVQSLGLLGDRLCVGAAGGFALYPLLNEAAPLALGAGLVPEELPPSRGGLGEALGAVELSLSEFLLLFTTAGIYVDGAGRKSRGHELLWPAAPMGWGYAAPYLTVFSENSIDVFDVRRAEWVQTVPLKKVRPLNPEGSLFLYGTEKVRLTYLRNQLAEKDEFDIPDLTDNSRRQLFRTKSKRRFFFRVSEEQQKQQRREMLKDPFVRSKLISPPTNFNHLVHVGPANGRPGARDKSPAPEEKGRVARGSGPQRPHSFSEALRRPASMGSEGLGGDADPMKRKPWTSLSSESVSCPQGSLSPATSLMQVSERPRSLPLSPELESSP

[17] = target: Dual specificity tyrosine-phosphorylation-regulated kinase 2 (Homo sapiens) (UniProt Q92630); conditions: Compound concentration 1000.0 nM
[18] = target: Ephrin type-A receptor 4 (Homo sapiens) (UniProt P54764); conditions: Compound concentration 1000.0 nM
[19] = target: Ephrin type-B receptor 1 (Homo sapiens) (UniProt P54762); conditions: Compound concentration 1000.0 nM
[20] = target: Mitogen-activated protein kinase 3 (Homo sapiens) (UniProt P27361); conditions: Compound concentration 1000.0 nM
[21] = target: Tyrosine-protein kinase Fer (Homo sapiens) (UniProt P16591); conditions: Compound concentration 1000.0 nM
Sequence of Tyrosine-protein kinase Fer (Homo sapiens) (P16591 whole entry, looked up): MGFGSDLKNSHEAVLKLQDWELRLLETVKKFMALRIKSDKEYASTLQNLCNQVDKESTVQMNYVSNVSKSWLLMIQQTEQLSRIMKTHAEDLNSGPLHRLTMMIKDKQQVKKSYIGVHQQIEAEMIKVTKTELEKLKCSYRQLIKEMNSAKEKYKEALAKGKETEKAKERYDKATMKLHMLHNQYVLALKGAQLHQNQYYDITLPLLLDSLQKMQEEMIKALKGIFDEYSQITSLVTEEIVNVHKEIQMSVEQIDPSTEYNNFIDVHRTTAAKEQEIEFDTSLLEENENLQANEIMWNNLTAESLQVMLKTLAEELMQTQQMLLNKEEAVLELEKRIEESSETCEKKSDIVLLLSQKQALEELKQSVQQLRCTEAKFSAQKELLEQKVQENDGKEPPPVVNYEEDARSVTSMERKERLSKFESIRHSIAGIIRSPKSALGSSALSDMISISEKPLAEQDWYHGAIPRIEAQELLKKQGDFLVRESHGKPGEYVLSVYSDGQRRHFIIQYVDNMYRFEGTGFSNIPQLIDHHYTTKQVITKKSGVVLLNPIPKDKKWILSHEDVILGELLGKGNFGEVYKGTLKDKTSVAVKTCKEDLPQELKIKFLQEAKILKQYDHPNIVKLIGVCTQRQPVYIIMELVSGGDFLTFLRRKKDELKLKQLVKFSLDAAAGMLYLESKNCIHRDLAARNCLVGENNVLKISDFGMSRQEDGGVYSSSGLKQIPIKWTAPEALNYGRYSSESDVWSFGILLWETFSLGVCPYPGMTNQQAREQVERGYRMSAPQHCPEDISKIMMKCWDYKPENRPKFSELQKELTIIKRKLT

[22] = system: Receptor-type tyrosine-protein kinase FLT3 (Homo sapiens), P36888 [UNDEFINED MUTATION]; conditions: Compound concentration 1000.0 nM
[23] = target: Cyclin-G-associated kinase (Homo sapiens) (UniProt O14976); conditions: Compound concentration 1000.0 nM
[24] = target: G protein-coupled receptor kinase 3 (Homo sapiens) (UniProt P35626); conditions: Compound concentration 1000.0 nM
[25] = target: Insulin receptor-related protein (Homo sapiens) (UniProt P14616); conditions: Compound concentration 1000.0 nM
[26] = target: Tyrosine-protein kinase ITK/TSK (Homo sapiens) (UniProt Q08881); conditions: Compound concentration 1000.0 nM
[27] = target: Mitogen-activated protein kinase 8 (Homo sapiens) (UniProt P45983); conditions: Compound concentration 1000.0 nM
[28] = target: Serine/threonine-protein kinase LATS1 (Homo sapiens) (UniProt O95835); conditions: Compound concentration 1000.0 nM
[29] = target: Mitogen-activated protein kinase kinase kinase 13 (Homo sapiens) (UniProt O43283); conditions: Compound concentration 1000.0 nM
[30] = target: Microtubule-associated serine/threonine-protein kinase 1 (Homo sapiens) (UniProt Q9Y2H9); conditions: Compound concentration 1000.0 nM
[31] = target: Serine/threonine-protein kinase 4 (Homo sapiens) (UniProt Q13043); conditions: Compound concentration 1000.0 nM
[32] = target: Serine/threonine-protein kinase PAK 4 (Homo sapiens) (UniProt O96013); conditions: Compound concentration 1000.0 nM
[33] = target: Phosphatidylinositol 4,5-bisphosphate 3-kinase catalytic subunit delta isoform (Homo sapiens) (UniProt O00329); conditions: Compound concentration 1000.0 nM
[34] = target: Phosphatidylinositol 4-phosphate 5-kinase type-1 alpha (Homo sapiens) (UniProt Q99755); conditions: Compound concentration 1000.0 nM
Sequence of Phosphatidylinositol 4-phosphate 5-kinase type-1 alpha (Homo sapiens) (Q99755 whole entry): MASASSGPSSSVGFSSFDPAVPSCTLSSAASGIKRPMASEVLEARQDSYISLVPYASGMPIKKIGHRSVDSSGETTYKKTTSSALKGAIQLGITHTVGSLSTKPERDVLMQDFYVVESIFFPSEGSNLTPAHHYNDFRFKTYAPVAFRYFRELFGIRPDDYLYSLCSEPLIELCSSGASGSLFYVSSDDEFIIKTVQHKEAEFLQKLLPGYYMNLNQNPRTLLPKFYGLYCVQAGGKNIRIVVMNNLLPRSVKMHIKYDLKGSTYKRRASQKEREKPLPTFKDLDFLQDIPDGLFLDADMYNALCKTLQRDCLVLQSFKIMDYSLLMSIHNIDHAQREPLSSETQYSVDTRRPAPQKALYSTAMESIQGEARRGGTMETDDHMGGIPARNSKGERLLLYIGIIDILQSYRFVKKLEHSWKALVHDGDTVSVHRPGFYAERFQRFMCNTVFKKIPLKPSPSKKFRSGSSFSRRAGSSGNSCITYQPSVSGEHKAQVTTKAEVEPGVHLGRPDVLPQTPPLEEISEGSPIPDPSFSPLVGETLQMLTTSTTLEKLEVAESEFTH

[35] = target: Phosphatidylinositol 5-phosphate 4-kinase type-2 beta (Homo sapiens) (UniProt P78356); conditions: Compound concentration 1000.0 nM
[36] = target: Serine/threonine-protein kinase PLK3 (Homo sapiens) (UniProt Q9H4B4); conditions: Compound concentration 1000.0 nM
[37] = target: Proto-oncogene tyrosine-protein kinase receptor Ret (Homo sapiens) (UniProt P07949); conditions: Compound concentration 1000.0 nM
[38] = target: Receptor-interacting serine/threonine-protein kinase 1 (Homo sapiens) (UniProt Q13546); conditions: Compound concentration 1000.0 nM
Sequence of Receptor-interacting serine/threonine-protein kinase 1 (Homo sapiens) (Q13546 whole entry): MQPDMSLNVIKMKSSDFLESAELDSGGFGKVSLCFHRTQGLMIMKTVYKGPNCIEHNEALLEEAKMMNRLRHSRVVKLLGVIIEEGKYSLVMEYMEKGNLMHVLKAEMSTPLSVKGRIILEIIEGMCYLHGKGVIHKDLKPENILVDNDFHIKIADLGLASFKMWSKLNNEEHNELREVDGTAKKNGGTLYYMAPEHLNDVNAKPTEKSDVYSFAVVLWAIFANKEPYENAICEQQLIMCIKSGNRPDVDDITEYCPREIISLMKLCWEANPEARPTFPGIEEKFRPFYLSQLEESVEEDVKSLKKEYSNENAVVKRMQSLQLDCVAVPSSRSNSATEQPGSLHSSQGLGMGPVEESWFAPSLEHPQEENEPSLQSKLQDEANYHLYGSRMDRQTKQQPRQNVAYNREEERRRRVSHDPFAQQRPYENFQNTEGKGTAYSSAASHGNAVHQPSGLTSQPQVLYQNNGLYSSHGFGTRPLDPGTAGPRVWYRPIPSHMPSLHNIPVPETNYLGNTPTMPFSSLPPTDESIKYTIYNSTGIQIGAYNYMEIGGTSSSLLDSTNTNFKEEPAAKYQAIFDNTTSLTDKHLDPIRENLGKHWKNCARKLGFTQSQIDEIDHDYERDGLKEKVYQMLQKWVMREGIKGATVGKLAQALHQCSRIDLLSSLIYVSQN

[39] = target: Serine/threonine-protein kinase Sgk2 (Homo sapiens) (UniProt Q9HBY8); conditions: Compound concentration 1000.0 nM
[40] = target: Serine/threonine-protein kinase SIK2 (Homo sapiens) (UniProt Q9H0K1); conditions: Compound concentration 1000.0 nM
[41] = target: SRSF protein kinase 2 (Homo sapiens) (UniProt P78362); conditions: Compound concentration 1000.0 nM
Sequence of SRSF protein kinase 2 (Homo sapiens) (P78362 whole entry, looked up): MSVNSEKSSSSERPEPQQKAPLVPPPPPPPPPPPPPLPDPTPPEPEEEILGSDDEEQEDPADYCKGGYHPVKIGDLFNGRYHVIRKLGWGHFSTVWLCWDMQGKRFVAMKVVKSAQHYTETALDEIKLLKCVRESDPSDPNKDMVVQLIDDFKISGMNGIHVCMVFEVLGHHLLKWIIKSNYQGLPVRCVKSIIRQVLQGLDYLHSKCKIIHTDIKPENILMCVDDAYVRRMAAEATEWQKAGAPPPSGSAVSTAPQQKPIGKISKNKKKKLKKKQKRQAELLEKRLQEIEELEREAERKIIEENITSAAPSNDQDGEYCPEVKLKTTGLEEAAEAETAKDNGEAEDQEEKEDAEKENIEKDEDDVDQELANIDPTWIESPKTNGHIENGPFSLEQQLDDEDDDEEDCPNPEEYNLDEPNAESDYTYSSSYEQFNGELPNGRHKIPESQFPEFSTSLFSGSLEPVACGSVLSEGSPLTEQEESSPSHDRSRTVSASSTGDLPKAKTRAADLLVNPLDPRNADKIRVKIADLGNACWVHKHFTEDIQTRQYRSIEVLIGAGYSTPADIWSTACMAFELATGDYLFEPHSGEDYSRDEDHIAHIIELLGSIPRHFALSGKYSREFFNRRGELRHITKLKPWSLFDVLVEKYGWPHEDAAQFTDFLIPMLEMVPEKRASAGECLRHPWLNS

[42] = target: Serine/threonine-protein kinase TNNI3K (Homo sapiens) (UniProt Q59H18); conditions: Compound concentration 1000.0 nM
[43] = target: Tyrosine-protein kinase TXK (Homo sapiens) (UniProt P42681); conditions: Compound concentration 1000.0 nM
[44] = target: 5-hydroxytryptamine receptor 2B (Homo sapiens) (UniProt P41595); conditions: Compound concentration 10.0 uM
[45] = target: Mu-type opioid receptor (Homo sapiens) (UniProt P35372); conditions: Compound concentration 10.0 uM

Sequence of Sigma intracellular receptor 2 (Q5BJF2 whole entry): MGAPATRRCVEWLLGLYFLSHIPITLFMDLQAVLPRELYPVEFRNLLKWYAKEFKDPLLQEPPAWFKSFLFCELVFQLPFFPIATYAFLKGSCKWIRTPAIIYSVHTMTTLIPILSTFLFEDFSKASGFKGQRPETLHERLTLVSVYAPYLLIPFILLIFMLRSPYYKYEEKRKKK

With O=C(NCc1ncc(C(F)(F)F)cc1Cl)c1ccc2c(c1)C1(CCS(=O)(=O)CC1)[C@H](C1CC1)N2S(=O)(=O)c1ccc(F)cc1 [BAY-784] the Ki [1] was 1110 nM, the residual activity [2] was 88% and the residual activity [3] was 100%. It also gave a residual activity [4] of 94%, a residual activity [5] of 76% and a residual activity [6] of 39%. It also gave a residual activity [7] of 82%, a residual activity [8] of 100% and a residual activity [9] of 98%. It also gave a residual activity [10] of 94%, a residual activity [11] of 85% and a residual activity [12] of 64%. The residual activity [13] was 0%, the residual activity [14] was 100% and the residual activity [15] was 85%. The residual activity [16] was 100%, the residual activity [17] was 95% and the residual activity [18] was 100%. It also gave a residual activity [19] of 100%, a residual activity [20] of 100% and a residual activity [21] of 100%. It also gave a residual activity [22] of 76%, a residual activity [23] of 97% and a residual activity [24] of 99%. For the same molecule, the residual activity [25] was 100%, the residual activity [26] was 100% and the residual activity [27] was 87%. For the same molecule, the residual activity [28] was 91%, the residual activity [29] was 0% and the residual activity [30] was 54%. For the same molecule, the residual activity [31] was 87%, the residual activity [32] was 100% and the residual activity [33] was 67%. For the same molecule, the residual activity [34] was 100%, the residual activity [35] was 89% and the residual activity [36] was 92%. It also gave a residual activity [37] of 98%, a residual activity [38] of 100% and a residual activity [39] of 83%. For the same molecule, the residual activity [40] was 96%, the residual activity [41] was 91% and the residual activity [42] was 100%. The residual activity [43] was 100%, the inhibition [44] was -2.53% and the inhibition [45] was 29.1%.

In the case of O=C(NCc1ncc(C(F)(F)F)cc1Cl)c1ccc2c(c1)C1(CCS(=O)(=O)CC1)[C@@H](C1CC1)N2S(=O)(=O)c1ccc(F)cc1 [BAY-786], the Ki [1] is reported as 2000 nM, the residual activity [2] is reported as 78% and the residual activity [3] is reported as 100%. The residual activity [4] was 87%, the residual activity [5] was 87% and the residual activity [6] was 97%. The residual activity [7] was 80%, the residual activity [8] was 100% and the residual activity [9] was 100%. It also gave a residual activity [10] of 90%, a residual activity [11] of 100% and a residual activity [12] of 56%. It also gave a residual activity [13] of 100%, a residual activity [14] of 87% and a residual activity [15] of 93%. For the same molecule, the residual activity [16] was 93%, the residual activity [17] was 90% and the residual activity [18] was 97%. The residual activity [19] was 100%, the residual activity [20] was 83% and the residual activity [21] was 100%. The residual activity [22] was 58%, the residual activity [23] was 96% and the residual activity [24] was 100%. For the same molecule, the residual activity [25] was 100%, the residual activity [26] was 100% and the residual activity [27] was 55%. For the same molecule, the residual activity [28] was 97%, the residual activity [29] was 0% and the residual activity [30] was 61%. It also gave a residual activity [31] of 86%, a residual activity [32] of 89% and a residual activity [33] of 67%. The residual activity [34] was 100%, the residual activity [35] was 89% and the residual activity [36] was 82%. For the same molecule, the residual activity [37] was 100%, the residual activity [38] was 30% and the residual activity [39] was 77%. The residual activity [40] was 100%, the residual activity [41] was 100% and the residual activity [42] was 100%. It also gave a residual activity [43] of 83%, an inhibition [44] of -2.32% and an inhibition [45] of 13.1%.
